Results published in patent publication US6365616B1, “Methimazole derivatives and tautomeric cyclic thiones to treat autoimmune diseases” (Sentron Medical, Inc., priority 1998, dated 2002).
Where two headings read alike, the source gives them in different places.

System: HLA-DRα class II promoter
Assay: Transient transfection CAT assay, HLA-DRα class II promoter chimeras in FRTL-5 cells
Type: cell-based
Source text: Construction of the HLA-DR promoter constructs has also been described as have been their characteristics (Reimold A M, et al., ibid (1993)). Additional CAT constructs were constructed by PCR, using the HLA-DRα-CAT chimera containing −176 to +45 of 5′-flanking region as template and various primers (Montani V. et al., ibid (1998a,b)). For example, a plasmid containing −38 to +45 bp of the 5′-flanking region of HLA-DRα was constructed with the following primers: a 5′ primer with a 5′ Sph I restriction site, 5′-[…]-3′ and a 3′ primer, 5′-[…]-3′, with an Xba I restriction site (Montani V., et al., ibid (1998a,b)). The PCR products were purified by phenol-chloroform extraction, digested with Xba I and Sph I, purified from a 2% agarose gel with Jet Sorb (Genomed, Frederick, Md.), dephosphorylated with calf intestinal alkaline phosphatase (New England Biolabs, Beverly, Mass.), and religated (DNA ligation kit, Takara Biochemical, Inc., Berkeley, Calif.) into the pCAT-Basic Vector (Promega, Madison, Wis.) at the Sph I and Xba I sites as described (Reimold AM, et al., ibid (1993); Montani V., et al., ibid (1998a,b)).
To measure the promoter activity of MHC class II promoter constructs, transient transfections in FRTL-5 cells were performed, using one of the following procedures (Montani V., et al., ibid (1998a, b)). In one, FRTL-5 cells were cultivated in 6H medium to approximately 80% confluency, harvested, washed, and resuspended (1.5×10^7 cells/ml) in 0.85 ml electroporation buffer (272 mM sucrose, 7 mM sodium phosphate buffer pH 7.4, and 1 mM MgCl2). Plasmid DNA was added, 20 μg of the CAT chimera together with 2 μg pRSV-luciferase which is used to measure the efficiency of transfection. Cells were pulsed (330 V; capacitance 25 μfarad), plated (6×10^6 cells/10 cm dish), and cultured in 6H medium plus 5% calf serum supplemented or not with γ-IFN. At the times noted, cells were harvested for CAT and luciferase assays. The second procedure differed as follows. FRTL-5 cells were grown to 80% confluency in 6H medium, then maintained 6 days in 5H medium plus 5% calf serum. Cells were returned to 6H medium for 12 hours, transfected as described above, and maintained in 6H medium plus 5% calf serum for twelve hours. The medium was then changed to fresh 5H medium with 5% calf serum supplemented or not with γ-IFN. […] CAT activity was measured as described above and values were normalized to luciferase activity measured using the Promega (Madison, Wis.) assay system.
To test the effect of MMI, MMI derivatives or tautomeric cyclic thiones on γ-IFN-increased class II expression in FRTL-5 thyroid cells, the following procedure was used. Transient transfections with the −137 bp or −176 bp DRα-CAT chimeras were performed as described and treated with 100 U/ml γ-IFN for the noted times starting 12 hours after transfection. […]
In this experiment, like previous experiments, transient transfections were performed in FRTL-5 cells grown to 80% confluency in 6H medium, maintained 6 days in SH medium, and returned to 6H medium for 12 h before transfection as described. Twelve hours later, the medium was changed to fresh 5H medium, supplemented or not with 100 U/ml γ-IFN and/or 5 mM MMI. CAT activity was measured 48 h thereafter. […] Results are the mean ±SD of 3 separate experiments.

[1] = 10 μM, 100 U/ml γ-interferon, 6H medium
[2] = 100 μM, 100 U/ml γ-interferon, 6H medium
[3] = 0.5 mM, 100 U/ml γ-interferon, 6H medium
[4] = 5 mM, 100 U/ml γ-interferon, 6H medium
[5] = FRTL-5, 10 μM, 100 U/ml γ-interferon, 6H medium, read-out: % inhibition of IFN-increased p(−137)CAT class II promoter activity
[6] = FRTL-5, 100 μM, 100 U/ml γ-interferon, 6H medium, read-out: % inhibition of IFN-increased p(−137)CAT class II promoter activity
[7] = FRTL-5, 0.5 mM, 100 U/ml γ-interferon, 6H medium, read-out: % inhibition of IFN-increased p(−137)CAT class II promoter activity
[8] = FRTL-5, 5 mM, 100 U/ml γ-interferon, 6H medium, read-out: % inhibition of IFN-increased p(−137)CAT class II promoter activity
[9] = FRTL-5, read-out: % inhibition of IFN-increased p(−137)CAT class II promoter activity

Row | SMILES | inhibition at 10 µM [5] [%] | inhibition at 100 µM [6] [%] | inhibition at 500 µM [7] [%] | inhibition at 5000 µM [8] [%] | other results
1 | Cn1ccn(C)c1=S [Compound 8, N-Methylmethimazole] |  |  |  |  | % inhibition of IFN-increased p(−137)CAT class II promoter activity [1]: 0%; % inhibition of IFN-increased p(−137)CAT class II promoter activity [2]: 43 ± 9%; % inhibition of IFN-increased p(−137)CAT class II promoter activity [3]: 79 ± 11%; % inhibition of IFN-increased p(−137)CAT class II promoter activity [4]: 88 ± 10%
2 | Cc1cnc(S)n1C [Compound 9, 5-Methylmethimazole] | 0 | 0 | 14 ± 12 | 44 ± 18 | 
3 | CSc1nccn1C [Compound 7, S-Methylmethimazole] | 0 | 20 ± 15 | 75 ± 6 | 84 ± 15 | 
4 | Cn1ccnc1S [Compound 1, 1-Methylimidazole-2-thiol] | 0 | 0 | 44 ± 6 | 87 ± 9 | 
5 | Cc1ccc2[nH]c(S)nc2c1 [Compound 6, 2-Mercapto-5-methylbenzimidazole] |  |  |  | 44 ± 8 | 
6 | O=[N+]([O-])c1ccc2[nH]c(S)nc2c1 [Compound 5, 2-Mercapto-5-nitrobenzimidazole] |  |  |  | 39 ± 13 | 
7 | Sc1ncc[nH]1 [Compound 3, 2-Mercaptoimidazole] |  |  |  |  | % inhibition of IFN-increased p(−137)CAT class II promoter activity [1]: None; % inhibition of IFN-increased p(−137)CAT class II promoter activity [2]: None; % inhibition of IFN-increased p(−137)CAT class II promoter activity [3]: None; % inhibition of IFN-increased p(−137)CAT class II promoter activity [4]: None
8 | Sc1nc2ccccc2[nH]1 [Compound 4, 2-Mercaptobenzimidazole] |  |  |  |  | inhibition at 10 µM [9]: 0%; inhibition at 100 µM [9]: 0%; inhibition at 500 µM [9]: 29 ± 12%; inhibition at 5000 µM [9]: 73 ± 14%
9 | Cn1c(-c2ccccc2)cnc1S [Compound 10, 5-Phenylmethimazole] | 45 ± 17 | 88 ± 15 | 95 ± 5 |  | 
10 | Cc1ncc([N+](=O)[O-])n1CCO [Compound 2, 2-Methyl-5-nitro-1-imidazole ethanol] | 0 | 0 | 55 ± 10 | 80 ± 4 | 
